Here are results for one compound from paper PMC9960821, “Evaluation of Rhenium and Technetium-99m Complexes Bearing Quinazoline Derivatives as Potential EGFR Agents” (Molecules, 2023).

pIC50: −log10 of the molar value.

The target of this test is T1, EGFR (Homo sapiens, UniProt P00533).
T1 construct: by immunoblotting in intact A431 cells that overexpress EGFR; endogenous in cells; host or cells: A431 (human epidermoid vulvar carcinoma)
Nature of the test: Inhibition of EGFR phosphorylation in intact A431 cells (immunoblotting). The format is cell-based. As to conditions: 2 h compound then EGF 20 ng/mL 5 min, Western blot. On the procedure: Complex 5a was evaluated for its potency to inhibit EGFR phosphorylation in various concentrations by immunoblotting in intact A431 cells that overexpress EGFR (Figure 3). In addition, the percentage of EGFR phosphorylation was calculated, and a dose-response curve was performed (Figure 4).
Cell line. The in vitro biological studies were established using the human epidermoid vulvar carcinoma A431 cell line, which overexpresses EGFR. Cells were available in our laboratory from previous studies. Cells were maintained in high glucose D-MEM medium with L-glutamine (PAA Laboratories GmbH, Pasching, Austria) and supplemented with 10% fetal bovine serum (PAA Laboratories GmbH) and penicillin/streptomycin (PAA Laboratories GmbH) 100 UI/100 μg per mL, in 5% CO2 incubator at 37 °C.
The inhibition of EGFR phosphorylation was studied as described in the literature. A431 cells (5 × 10^5 cells/well) were seeded in 6-well plates and incubated for 24 h. Then, the medium was replaced with fresh medium without fetal bovine serum. […] Protein band quantification was performed using Image-J software, and the percentage of EGFR phosphorylation inhibition was calculated using GraphPad Prism 9.0 software.
For orientation: In western blotting, separated proteins are transferred to a membrane and probed.

T1 sequence (P00533 25-1210): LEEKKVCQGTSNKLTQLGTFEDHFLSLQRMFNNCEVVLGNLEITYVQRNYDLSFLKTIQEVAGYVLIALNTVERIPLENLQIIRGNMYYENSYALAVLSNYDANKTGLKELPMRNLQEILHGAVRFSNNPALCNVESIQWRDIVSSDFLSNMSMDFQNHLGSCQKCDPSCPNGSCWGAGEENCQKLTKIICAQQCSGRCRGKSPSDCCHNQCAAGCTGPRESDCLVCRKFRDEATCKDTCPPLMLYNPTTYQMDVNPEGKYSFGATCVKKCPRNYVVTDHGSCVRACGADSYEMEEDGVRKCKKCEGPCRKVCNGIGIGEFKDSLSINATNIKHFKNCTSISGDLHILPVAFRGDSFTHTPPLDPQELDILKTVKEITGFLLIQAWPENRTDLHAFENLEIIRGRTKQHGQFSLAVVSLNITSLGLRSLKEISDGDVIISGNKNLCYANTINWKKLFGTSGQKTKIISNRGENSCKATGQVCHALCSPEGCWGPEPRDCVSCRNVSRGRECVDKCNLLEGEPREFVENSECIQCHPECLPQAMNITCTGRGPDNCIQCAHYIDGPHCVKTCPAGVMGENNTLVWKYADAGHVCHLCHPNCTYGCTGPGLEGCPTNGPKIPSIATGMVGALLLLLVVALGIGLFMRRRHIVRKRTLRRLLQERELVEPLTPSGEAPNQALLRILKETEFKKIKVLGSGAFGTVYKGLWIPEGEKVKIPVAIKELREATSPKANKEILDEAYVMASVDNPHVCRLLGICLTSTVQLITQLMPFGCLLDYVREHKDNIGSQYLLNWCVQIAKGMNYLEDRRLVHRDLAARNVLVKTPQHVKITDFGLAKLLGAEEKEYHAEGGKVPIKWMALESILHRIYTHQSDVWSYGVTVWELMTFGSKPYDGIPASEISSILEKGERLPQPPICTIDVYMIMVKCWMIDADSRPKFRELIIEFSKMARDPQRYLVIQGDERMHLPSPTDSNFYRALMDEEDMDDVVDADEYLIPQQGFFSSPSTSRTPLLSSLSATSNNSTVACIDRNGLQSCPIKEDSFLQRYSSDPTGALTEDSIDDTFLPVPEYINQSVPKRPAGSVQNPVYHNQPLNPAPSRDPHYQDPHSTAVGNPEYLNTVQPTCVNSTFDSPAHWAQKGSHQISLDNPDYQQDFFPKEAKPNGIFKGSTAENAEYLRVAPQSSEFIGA

One may read the pIC50 as the IC50 on a negative log10 scale, so that one unit is a factor of ten. Consider `O=C([O-])CN(CCCCCC(=O)Nc1ccc2ncnc(Nc3cccc(Br)c3)c2c1)Cc1ccccn1.[99Tc+].[C-]#[O+].[C-]#[O+].[C-]#[O+]` [Compound 5b, fac-[^99mTc(NNO)(CO)3]], for which the negative logarithm of the IC50 (pIC50) is 7.58.
